SMILES strings stand for the structures.

Assay [1] addresses Mitogen-activated protein kinase kinase kinase 20 (Homo sapiens) (UniProt Q9NYL2). As to the kind of experiment: Inhibition of T7 bacteriophage fused human ZAK at 10 uM by KINOMEscan analysis relative to control.
In assay [2] the target is T1, Tyrosine-protein kinase receptor TYRO3 (Homo sapiens) (UniProt Q06418).
T1 sequence (whole entry): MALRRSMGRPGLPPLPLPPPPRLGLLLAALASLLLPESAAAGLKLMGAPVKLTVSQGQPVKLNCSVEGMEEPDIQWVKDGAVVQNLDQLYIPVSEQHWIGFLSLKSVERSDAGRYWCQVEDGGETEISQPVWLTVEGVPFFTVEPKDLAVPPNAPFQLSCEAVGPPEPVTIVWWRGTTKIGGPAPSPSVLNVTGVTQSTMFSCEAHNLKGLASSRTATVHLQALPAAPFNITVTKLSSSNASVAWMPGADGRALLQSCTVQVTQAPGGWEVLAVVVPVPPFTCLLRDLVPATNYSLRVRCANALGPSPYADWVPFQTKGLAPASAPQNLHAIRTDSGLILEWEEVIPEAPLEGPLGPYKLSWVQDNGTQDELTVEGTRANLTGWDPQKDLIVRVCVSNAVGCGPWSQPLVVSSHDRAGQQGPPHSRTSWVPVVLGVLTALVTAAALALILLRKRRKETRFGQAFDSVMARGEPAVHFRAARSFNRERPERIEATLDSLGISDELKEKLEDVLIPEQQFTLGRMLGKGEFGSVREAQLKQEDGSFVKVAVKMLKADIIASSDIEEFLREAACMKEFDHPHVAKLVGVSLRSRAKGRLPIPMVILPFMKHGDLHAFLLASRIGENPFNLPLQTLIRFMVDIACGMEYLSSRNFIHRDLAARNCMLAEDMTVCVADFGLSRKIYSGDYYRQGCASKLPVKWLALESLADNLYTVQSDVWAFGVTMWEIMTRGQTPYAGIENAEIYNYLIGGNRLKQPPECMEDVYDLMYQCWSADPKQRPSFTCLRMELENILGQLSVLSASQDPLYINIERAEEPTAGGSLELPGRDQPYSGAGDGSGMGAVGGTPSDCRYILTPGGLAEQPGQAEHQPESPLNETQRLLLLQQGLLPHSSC
Briefly: Inhibition of T7 bacteriophage fused human TYRO3 at 10 uM by KINOMEscan analysis relative to control.

The target of assay [3] is T2, Serine/threonine-protein kinase ULK3 (Homo sapiens) (UniProt Q6PHR2).
T2 sequence (whole entry): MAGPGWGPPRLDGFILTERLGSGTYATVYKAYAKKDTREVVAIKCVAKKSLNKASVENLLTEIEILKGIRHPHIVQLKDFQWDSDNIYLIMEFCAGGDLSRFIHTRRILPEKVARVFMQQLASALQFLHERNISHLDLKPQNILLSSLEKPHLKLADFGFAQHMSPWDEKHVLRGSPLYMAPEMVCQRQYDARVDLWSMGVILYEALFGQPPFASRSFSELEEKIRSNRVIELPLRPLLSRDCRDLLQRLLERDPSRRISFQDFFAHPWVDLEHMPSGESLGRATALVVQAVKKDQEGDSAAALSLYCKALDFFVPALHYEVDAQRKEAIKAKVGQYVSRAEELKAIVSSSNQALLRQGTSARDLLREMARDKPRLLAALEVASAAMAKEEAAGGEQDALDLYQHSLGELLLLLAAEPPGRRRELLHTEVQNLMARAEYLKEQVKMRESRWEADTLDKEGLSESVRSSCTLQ
Briefly: Inhibition of T7 bacteriophage fused human ULK3 at 10 uM by KINOMEscan analysis relative to control.

Assay [4] addresses Ribosomal protein S6 kinase alpha-2 (Homo sapiens) (UniProt Q15349). Briefly: Inhibition of T7 bacteriophage fused human N-terminal RSK3 Kinase domain-1 at 10 uM by KINOMEscan analysis relative to control.
Assay [5] addresses T3, Serine/threonine-protein kinase ULK1 (Homo sapiens) (UniProt O75385).
T3 sequence (whole entry): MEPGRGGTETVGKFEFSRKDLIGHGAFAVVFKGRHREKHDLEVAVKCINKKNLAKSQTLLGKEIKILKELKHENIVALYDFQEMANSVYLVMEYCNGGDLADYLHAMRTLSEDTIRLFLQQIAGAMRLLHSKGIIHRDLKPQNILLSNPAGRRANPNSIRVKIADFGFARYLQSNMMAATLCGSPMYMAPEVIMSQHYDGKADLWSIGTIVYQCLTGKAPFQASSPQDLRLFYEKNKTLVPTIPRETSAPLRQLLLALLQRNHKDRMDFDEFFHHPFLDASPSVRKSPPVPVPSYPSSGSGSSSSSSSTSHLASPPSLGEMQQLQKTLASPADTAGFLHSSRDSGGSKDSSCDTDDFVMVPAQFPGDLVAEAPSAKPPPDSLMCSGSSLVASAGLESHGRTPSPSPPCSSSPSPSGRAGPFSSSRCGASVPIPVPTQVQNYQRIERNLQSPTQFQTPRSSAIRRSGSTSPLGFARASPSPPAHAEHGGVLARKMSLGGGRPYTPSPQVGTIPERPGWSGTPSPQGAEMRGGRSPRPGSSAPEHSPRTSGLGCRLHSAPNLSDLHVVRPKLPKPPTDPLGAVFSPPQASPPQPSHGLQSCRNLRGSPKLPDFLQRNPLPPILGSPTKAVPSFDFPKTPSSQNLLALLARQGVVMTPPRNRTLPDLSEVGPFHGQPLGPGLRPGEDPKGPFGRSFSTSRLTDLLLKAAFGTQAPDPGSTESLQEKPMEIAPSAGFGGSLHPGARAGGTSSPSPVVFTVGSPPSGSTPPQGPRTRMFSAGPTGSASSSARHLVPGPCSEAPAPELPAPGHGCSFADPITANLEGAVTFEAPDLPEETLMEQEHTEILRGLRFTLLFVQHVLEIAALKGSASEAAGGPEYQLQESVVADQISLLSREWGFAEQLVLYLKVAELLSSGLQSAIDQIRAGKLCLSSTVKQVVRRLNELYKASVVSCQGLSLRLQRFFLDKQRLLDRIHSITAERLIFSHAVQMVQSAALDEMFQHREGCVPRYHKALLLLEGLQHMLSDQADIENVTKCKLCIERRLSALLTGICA
Briefly: Inhibition of T7 bacteriophage fused human ULK1 at 10 uM by KINOMEscan analysis relative to control.

Sequence of Mitogen-activated protein kinase kinase kinase 20 (Homo sapiens) (Q9NYL2 2-800 limits assumed): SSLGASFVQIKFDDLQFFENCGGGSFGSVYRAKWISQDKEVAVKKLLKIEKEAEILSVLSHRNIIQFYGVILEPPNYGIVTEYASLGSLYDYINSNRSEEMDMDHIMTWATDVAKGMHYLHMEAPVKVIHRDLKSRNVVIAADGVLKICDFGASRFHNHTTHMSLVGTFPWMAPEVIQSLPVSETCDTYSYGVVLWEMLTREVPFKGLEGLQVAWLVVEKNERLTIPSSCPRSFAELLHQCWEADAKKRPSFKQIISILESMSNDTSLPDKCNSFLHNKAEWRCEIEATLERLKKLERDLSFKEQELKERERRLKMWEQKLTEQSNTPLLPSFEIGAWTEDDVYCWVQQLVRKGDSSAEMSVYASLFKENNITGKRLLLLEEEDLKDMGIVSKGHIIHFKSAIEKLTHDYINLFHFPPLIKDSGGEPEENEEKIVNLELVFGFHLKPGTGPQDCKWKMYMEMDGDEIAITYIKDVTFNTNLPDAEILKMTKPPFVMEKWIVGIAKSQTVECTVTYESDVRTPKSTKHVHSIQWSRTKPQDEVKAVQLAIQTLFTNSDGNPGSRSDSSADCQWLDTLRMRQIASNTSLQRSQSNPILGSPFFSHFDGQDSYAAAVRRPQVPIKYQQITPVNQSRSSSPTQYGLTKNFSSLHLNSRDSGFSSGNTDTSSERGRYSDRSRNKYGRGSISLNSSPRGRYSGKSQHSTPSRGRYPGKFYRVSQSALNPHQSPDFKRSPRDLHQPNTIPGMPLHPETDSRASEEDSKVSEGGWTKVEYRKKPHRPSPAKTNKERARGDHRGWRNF
Sequence of Ribosomal protein S6 kinase alpha-2 (Homo sapiens) (Q15349 whole entry, the tested form may be a part): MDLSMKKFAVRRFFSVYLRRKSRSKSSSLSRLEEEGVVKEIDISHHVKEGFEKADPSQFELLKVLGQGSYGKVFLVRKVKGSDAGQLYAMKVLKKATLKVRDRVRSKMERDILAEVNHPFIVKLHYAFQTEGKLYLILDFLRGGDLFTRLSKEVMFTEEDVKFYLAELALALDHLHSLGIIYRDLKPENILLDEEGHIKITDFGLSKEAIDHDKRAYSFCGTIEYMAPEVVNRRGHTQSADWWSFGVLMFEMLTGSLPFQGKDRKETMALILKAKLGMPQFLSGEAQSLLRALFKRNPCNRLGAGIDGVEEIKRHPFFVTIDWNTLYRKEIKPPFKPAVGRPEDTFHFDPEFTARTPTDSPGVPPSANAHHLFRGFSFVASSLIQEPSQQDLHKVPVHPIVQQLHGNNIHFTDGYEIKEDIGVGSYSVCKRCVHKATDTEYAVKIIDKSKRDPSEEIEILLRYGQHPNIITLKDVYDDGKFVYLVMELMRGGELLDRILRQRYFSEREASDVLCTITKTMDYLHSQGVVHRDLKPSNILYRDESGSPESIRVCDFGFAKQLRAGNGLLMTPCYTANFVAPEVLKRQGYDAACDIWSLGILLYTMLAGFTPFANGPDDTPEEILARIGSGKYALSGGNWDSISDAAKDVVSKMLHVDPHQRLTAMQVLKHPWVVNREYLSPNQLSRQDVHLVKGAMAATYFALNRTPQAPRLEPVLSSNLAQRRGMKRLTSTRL

As to `COc1cc(C(=O)N2CCC(N3CCN(C)CC3)CC2)ccc1Nc1ncc2c(n1)N(C1CCCC1)c1ccccc1C(=O)N2C`, the inhibition in assay [1], in assay [2], in assay [3], in assay [4] and in assay [5] was 100% each time.

Take `COc1cc(N2CCC(N3CCN(C)CC3)CC2)ccc1Nc1ncc2c(n1)N(C)c1ccccc1C(=O)N2C`: the inhibition (as a rule, the relative decrease from the control value, in per cent) in assay [1] stood at 99%; in assay [2] it was 100%; in assay [3], 100%; in assay [4] it was 83%; in assay [5], 80%.

With `CCOc1cc(C(=O)N2CCC(N3CCN(C)CC3)CC2)ccc1Nc1ncc2c(n1)N(C1CCCC1)c1ccccc1C(=O)N2C`, the inhibition in assay [1], in assay [2], in assay [3], in assay [4] and in assay [5] was 100% throughout.

These data come from ChEMBL document CHEMBL5678810.
